Experimental data taken from patent US20250221966A1, “RXFP1 AGONISTS” (BRISTOL-MYERS SQUIBB COMPANY, priority 2021, published 2025).
Read-outs that look alike come from different tables or passages of the source.

Target: T1, human RXFP1 (Homo sapiens, UniProt Q9HBX9)
T1 construct: expressed in transfected cells
T1 sequence (Q9HBX9 1-757): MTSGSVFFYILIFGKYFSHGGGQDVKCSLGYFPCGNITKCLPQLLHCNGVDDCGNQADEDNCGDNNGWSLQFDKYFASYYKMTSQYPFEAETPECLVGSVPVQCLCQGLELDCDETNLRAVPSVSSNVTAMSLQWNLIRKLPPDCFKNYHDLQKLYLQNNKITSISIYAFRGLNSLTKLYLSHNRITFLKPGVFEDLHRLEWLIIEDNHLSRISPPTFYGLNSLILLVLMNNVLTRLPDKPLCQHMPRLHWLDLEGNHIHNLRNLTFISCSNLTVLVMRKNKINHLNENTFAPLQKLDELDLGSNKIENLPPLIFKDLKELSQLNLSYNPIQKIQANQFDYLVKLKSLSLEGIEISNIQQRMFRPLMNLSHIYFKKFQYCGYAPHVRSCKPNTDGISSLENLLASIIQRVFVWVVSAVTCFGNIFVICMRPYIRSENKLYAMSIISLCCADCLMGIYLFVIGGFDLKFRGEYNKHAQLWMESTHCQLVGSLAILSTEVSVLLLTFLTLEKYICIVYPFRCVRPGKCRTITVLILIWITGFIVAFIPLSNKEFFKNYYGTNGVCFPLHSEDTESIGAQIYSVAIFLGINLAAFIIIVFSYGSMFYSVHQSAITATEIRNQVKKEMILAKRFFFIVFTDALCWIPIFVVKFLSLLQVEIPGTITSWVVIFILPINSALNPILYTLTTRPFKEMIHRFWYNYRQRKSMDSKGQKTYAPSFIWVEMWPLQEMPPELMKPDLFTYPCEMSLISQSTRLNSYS
Test: RXFP1 cAMP assay (hRXFP1 HEK293 cAMP assay, HTRF)
Assay type: cell-based
Method in brief: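 HEK293 cells stably expressing human RXFP1 (1500 cells/well) in HBSS/20 mM HEPES/0.05% BSA/0.5 mM IBMX. Compounds were tested at 0.010 nM–50 μM final (2% DMSO) for 30 min at room temperature. cAMP was measured by HTRF and values derived by 4-parameter logistic fit.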

[1] = HEK293 cells stably expressing human RXFP1, 30 min at room temperature, read-out: cAMP hRXFP1 HEK293 Assay EC50

EC50 [1] | SMILES | EC50 (cAMP hRXFP1 HEK293 Assay EC50, HEK293 cells stably expressing human RXFP1, 30 min at room temperature)
364 nM | COc1ccc(C2CC(O)C(=O)N2C)cc1C(=O)N[C@@H]1C2CCC(/C2=C/C2CC2)[C@@H]1C(=O)Nc1ccc(F)c(C(F)(F)F)c1 (single isomer, unassigned) [Example 414] | –
45.3 nM | COc1ccc([C@H]2CO[C@@H]3[C@H]2OC[C@@H]3O)cc1C(=O)N[C@H]1[C@@H](C(=O)Nc2ccc(F)c(C(F)(F)F)c2)[C@H]2CC[C@@H]1/C2=C\C1CC1 [compound 560] | –
8.6 nM | COc1ccc(-c2cc(C3=NOC(C(=O)O)C3)ccc2F)cc1C(=O)N[C@H]1[C@@H](C(=O)Nc2ccc(F)c(C(F)(F)F)c2)[C@H]2CC[C@@H]1/C2=C\C1CC1 (stereo partly shown) [compound 948] | –
4.5 nM | COc1ccc(C2=NOC3CC(C(C)O)CC23)cc1C(=O)N[C@H]1[C@@H](C(=O)Nc2ccc(F)c(C(F)(F)F)c2)[C@H]2CC[C@@H]1/C2=C\C1CC1 (stereo partly shown) [compound 855] | –
1300 nM | COc1ccc(N2CCCC(CO)C2)cc1C(=O)N[C@@H]1C2CCC(/C2=C/C2CC2)[C@@H]1C(=O)Nc1ccc(F)c(C(F)(F)F)c1 (single isomer, unassigned) [compound 705] | –
658 nM | COCCOC1(C2CC(c3ccc(OC)c(C(=O)N[C@H]4[C@@H](C(=O)Nc5ccc(F)c(C(F)(F)F)c5)[C@H]5CC[C@@H]4/C5=C\C4CC4)c3)=NO2)CC1 (single isomer, unassigned) [compound 687] | –
15.2 nM | COc1ccc(C2=NOC(C(C)O)C2)cc1C(=O)N[C@H]1[C@@H](C(=O)Nc2ccc(F)c(C(F)(F)F)c2)[C@H]2CC[C@@H]1/C2=C\C1CC1 (single isomer, unassigned) [compound 509] | –
10.5 nM | COc1ccc(C2=NOC3CCC(O)C23)cc1C(=O)N[C@H]1[C@@H](C(=O)Nc2ccc(F)c(C(F)(F)F)c2)[C@H]2CC[C@@H]1/C2=C\C1CC1 (single isomer, unassigned) [compound 496] | –
15 nM | COc1ccc(-c2cccc(OC(F)(F)F)c2)cc1C(=O)N[C@@H]1C2CCC(/C2=C/C2CC2)[C@@H]1C(=O)Nc1ccc(F)c(C(F)(F)F)c1 (stereo partly shown) [compound 281] | –
4 nM | O=C(N[C@H]1C(C(=O)Nc2ccc(F)c(C(F)(F)F)c2)[C@H]2CC[C@@H]1/C2=C\C1CC1)c1cc(C2=NOC3COCC23)ccc1OCC(F)F (stereo partly shown) [compound 785] | –
2.3 nM | COc1ccc(C2=NO[C@H]3COC[C@@H]23)cc1C(=O)N[C@H]1[C@@H](C(=O)Nc2ccc(F)c(C(F)(F)F)c2)[C@H]2CC[C@@H]1/C2=C\C1CCCC1 [compound 819] | –
23 nM | COc1ccc(C2CC3CN(CCCO)C(=O)C32)cc1C(=O)N[C@H]1[C@@H](C(=O)Nc2ccc(F)c(C(F)(F)F)c2)[C@H]2CC[C@@H]1/C2=C\C1CC1 (single isomer, unassigned) [compound 734] | –
675 nM | COc1ccc(C2CCCN2C(=O)C(C)(C)O)cc1C(=O)N[C@@H]1C2CCC(C2=CC2CC2)[C@@H]1C(=O)Nc1ccc(F)c(C(F)(F)F)c1 (stereo partly shown) [compound 688] | –
4.7 nM | COc1c(Cl)cc(C2=NOC3CC(CO)CC23)cc1C(=O)N[C@H]1[C@@H](C(=O)Nc2ccc(F)c(C(F)(F)F)c2)[C@H]2CC[C@@H]1/C2=C\C1CC1 (stereo partly shown) [compound 798] | –
176 nM | COc1ccc(N2CC[C@H](O)C2=O)cc1C(=O)N[C@H]1[C@@H](C(=O)Nc2ccc(F)c(C(F)(F)F)c2)[C@H]2CC[C@@H]1/C2=C\C1CC1 [compound 627] | –

Further lines, the compound ahead of its results:

SMILES | EC50 [1] | EC50 (cAMP hRXFP1 HEK293 Assay EC50, HEK293 cells stably expressing human RXFP1, 30 min at room temperature)
COc1cc(F)c(F)cc1C(=O)N[C@@H]1C2CCC(/C2=C/C=C/c2ccccc2)[C@@H]1C(=O)Nc1ccc(F)c(C(F)(F)F)c1 (stereo partly shown) [compound 64] | 520 nM | –
COc1cc(F)c(F)cc1C(=O)N[C@@H]1C2CCC(/C2=C/c2ccccc2Cl)[C@@H]1C(=O)Nc1ccc(F)c(C(F)(F)F)c1 (stereo partly shown) [compound 14] | 220 nM | –
COc1ccc(-c2cc([C@H](OC(=O)NC3CCC3)C(F)(F)F)ccc2F)cc1C(=O)N[C@@H]1C2CCC(/C2=C/C2CC(F)(F)C2)[C@@H]1C(=O)Nc1ccc(F)c(C(F)(F)F)c1 (stereo partly shown) [compound 359] | 2 nM | –
COc1ccc(-c2cc(C(=O)O)ccc2F)cc1C(=O)N[C@@H]1C2CCC(/C2=C/c2ccoc2)[C@@H]1C(=O)Nc1ccc(F)c(C(F)(F)F)c1 (stereo partly shown) [compound 159] | 21 nM | –
O=C(NC1CCC1)O[C@@H](c1ccc(F)c(-c2ccc(OCCO)c(C(=O)N[C@@H]3C4CCC(/C4=C/C(F)(F)F)[C@@H]3C(=O)Nc3ccc(F)c(C(F)(F)F)c3)c2)c1)C(F)(F)F (stereo partly shown) [compound 319] | 13 nM | –
COc1cc(F)c(F)cc1C(=O)N[C@@H]1C2CCC(/C2=C/c2cccc(C(F)(F)F)c2)[C@@H]1C(=O)Nc1ccc(F)c(C(F)(F)F)c1 (stereo partly shown) [compound 25] | 200 nM | –
COc1ccc(-c2cc(C(=O)N3CCCC3)ccc2F)cc1C(=O)N[C@@H]1C2CCC(/C2=C/c2cnoc2)[C@@H]1C(=O)Nc1ccc(F)c(C(F)(F)F)c1 (stereo partly shown) [compound 191] | 42 nM | –
COc1ccc(-c2cc(C(NC(C)=O)C(=O)O)ccc2F)cc1C(=O)N[C@@H]1C2CCC(/C2=C/C2CC2)[C@@H]1C(=O)Nc1ccc(F)c(C(F)(F)F)c1 (stereo partly shown) [compound 184] | 11 nM | –
COc1cc(F)c(F)cc1C(=O)N[C@@H]1C2CCC(/C2=C/c2ccccc2)[C@@H]1C(=O)Nc1cccc(S(C)(=O)=O)c1 (stereo partly shown) [compound 139] | 550 nM | –
COc1ccc(C2=NOC3COCC23)cc1C(=O)N[C@H]1[C@@H](C(=O)NC2(C)CCCC2)[C@H]2CC[C@@H]1/C2=C\C1CC1 (stereo partly shown) [compound 494] | 10.4 nM | –
COc1ccc(C2=NOC3COCC23)cc1C(=O)N[C@H]1[C@@H](C(=O)NC23CC(C#N)(C2)C3)[C@H]2CC[C@@H]1/C2=C\C1CC1 (stereo partly shown) [compound 777] | 13.9 nM | –
COc1ccc(C2=NOC3COCC23)cc1C(=O)N[C@H]1[C@@H](C(=O)NC2(C(C)C)CC2)[C@H]2CC[C@@H]1/C2=C\C1CC1 (stereo partly shown) [compound 584] | 77.3 nM | –
COc1c(F)cc(C2=NOC3CC(CO)CC23)cc1C(=O)N[C@H]1[C@@H](C(=O)N[C@H](C)C2(C(F)(F)F)CC2)[C@H]2CC[C@@H]1/C2=C\C1CC1 (stereo partly shown) [compound 869] | 1.4 nM | –
COc1ccc(-c2cc(C(=O)O)ccc2F)cc1C(=O)N[C@@H]1C2CCC(/C2=C/C2CC2)[C@@H]1C(=O)NC(C)c1cc(F)ccc1F (stereo partly shown) [compound 307] | 958 nM | –
COc1ccc(C2=NO[C@H]3CC(CO)C[C@@H]23)cc1C(=O)N[C@H]1[C@@H](C(=O)Nc2ccc(F)c(C(F)(F)F)c2)[C@H]2CC[C@@H]1/C2=C\CCC(F)(F)F (stereo partly shown) [compound 825] | 2.9 nM | –
COc1ccc(-c2ccc(C(CC(=O)O)C(F)(F)F)cc2F)cc1C(=O)N[C@H]1[C@@H](C(=O)Nc2ccc(F)c(C(F)(F)F)c2)[C@H]2CC[C@@H]1/C2=C\C1CC1 (stereo partly shown) [compound 884] | 1 nM | –
COc1cc(F)c(F)cc1C(=O)N[C@@H]1C2CCC(/C2=C/c2cccc(Cc3ccccc3)c2)[C@@H]1C(=O)Nc1ccc(F)c(C(F)(F)F)c1 (stereo partly shown) [compound 49] | 200 nM | –
COc1ccc(Cl)cc1C(=O)N[C@@H]1C2CCC(C2=C(C)C)[C@@H]1C(=O)Nc1ccc(F)c(C(F)(F)F)c1 (stereo partly shown) [compound 109] | 390 nM | –
COc1ccc(C2=NOC3COCC23)cc1C(=O)N[C@H]1[C@@H](C(=O)NC(C)(C)C(C)(C)C)[C@H]2CC[C@@H]1/C2=C\C1CC1 (stereo partly shown) [compound 508] | 13 nM | –
COc1ccc(-c2cc(C(OC(=O)NC3CCC3)C(=O)O)ccc2F)cc1C(=O)N[C@H]1[C@@H](C(=O)Nc2ccc(F)c(C(F)(F)F)c2)[C@H]2CC[C@@H]1/C2=C\C(C)C (stereo partly shown) [compound 938] | 1.7 nM | –
COc1ccc(C2=NOC3COCC23)cc1C(=O)N[C@H]1[C@@H](C(=O)NCCC(C)(C)C)[C@H]2CC[C@@H]1/C2=C\C1CC1 (stereo partly shown) [compound 612] | 134 nM | –
COc1cc(F)c(F)cc1C(=O)N[C@@H]1C2CCC(/C2=C2\C=Cc3ccccc32)[C@@H]1C(=O)Nc1ccc(F)c(C(F)(F)F)c1 (stereo partly shown) [Example 33] | – | 310 nM
COCCCOc1c(F)cc(C2=NOC3COCC23)cc1C(=O)N[C@H]1[C@@H](C(=O)Nc2ccc(F)c(C(F)(F)F)c2)[C@H]2CC[C@@H]1/C2=C\C1CC1 (stereo partly shown) [compound 778] | 1.1 nM | –
COc1ccc(-c2cc([C@H](OC(=O)NC3CCC3)C(F)(F)F)ccc2F)cc1C(=O)N[C@@H]1C2CCC(/C2=C/C(C)C)[C@@H]1C(=O)Nc1ccc(F)c(C(F)(F)F)c1 (stereo partly shown) [compound 925] | 5.2 nM | –
CCC(C)(C)NC(=O)[C@@H]1[C@H](NC(=O)c2cc(C3=NOC4COCC34)ccc2OC)[C@@H]2CC[C@H]1/C2=C/C1CC1 (stereo partly shown) [compound 502] | 11.9 nM | –
COc1ccc(-c2cc(C(=O)O)ccc2F)cc1C(=O)N[C@@H]1C2CCC(/C2=C/C2CC2)[C@@H]1C(=O)NC1CCc2ccccc2C1 (stereo partly shown) [compound 299] | 227 nM | –
COc1ccc(C2=NOC3COCC23)cc1C(=O)N[C@H]1[C@@H](C(=O)NCc2ccccc2C)[C@H]2CC[C@@H]1/C2=C\C1CC1 (stereo partly shown) [compound 585] | 78.3 nM | –
COc1ccc(-c2cc(C(=O)O)ccc2F)cc1C(=O)N[C@@H]1C2CCC(/C2=C/C2CC2)[C@@H]1C(=O)NCCc1cccc(C(F)(F)F)c1 (stereo partly shown) [compound 302] | 889 nM | –
